Several values for one entry are separate records, joined by “and”; a condition that tells them apart may be missing. Equal entries are not always repeated.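 All cell lines were grown in 96-well plates and treated with compound for 48 hours. The concentration for 50% growth inhibition is given as GI50. TGI denotes the concentration required for complete inhibition of growth.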
How the values were obtained:
Experiment in all cases: growth of human tumour cells (NCI), 48 h
SNB-75 CNS = system: SNB-75 CNS
MDA-MB-231 breast = system: MDA-MB-231 breast
NCI-H226 lung = system: NCI-H226 lung
NCI/ADR-RES ovarian = system: NCI/ADR-RES ovarian
OVCAR-4 ovarian = system: OVCAR-4 ovarian
KM12 colon = system: KM12 colon
RPMI-8226 leukemia = system: RPMI-8226 leukemia
SF-295 CNS = system: SF-295 CNS
SF-539 CNS = system: SF-539 CNS
HCT-116 colon = system: HCT-116 colon

SMILES	GI50 (SNB-75 CNS)	TGI (SNB-75 CNS)	GI50 (MDA-MB-231 breast)	TGI (MDA-MB-231 breast)	GI50 (NCI-H226 lung)	TGI (NCI-H226 lung)	GI50 (NCI/ADR-RES ovarian)	TGI (NCI/ADR-RES ovarian)	GI50 (OVCAR-4 ovarian)	TGI (OVCAR-4 ovarian)	GI50 (KM12 colon)	TGI (KM12 colon)	GI50 (RPMI-8226 leukemia)	TGI (RPMI-8226 leukemia)	GI50 (SF-295 CNS)	TGI (SF-295 CNS)	GI50 (SF-539 CNS)	TGI (SF-539 CNS)	GI50 (HCT-116 colon)	TGI (HCT-116 colon)
O=C(O)c1ccc2c(c1)CCCC(c1ccc(Cl)cc1Cl)=C2c1ccc(O[C@H]2CCN(CCCF)C2)cc1	12.1 µM	25.3 µM	16.4 µM	31.6 µM	10.4 µM	38.8 µM	13 µM	27.4 µM	12 µM	30 µM	7.29 µM	20.3 µM	6.99 µM	27.5 µM	7.86 µM	20.5 µM	14.1 µM	27.5 µM	7.98 µM	21.7 µM
C=CC(=O)Nc1cc2c(Nc3ccc(F)c(Cl)c3)ncnc2cc1OCCCN1CCOCC1	0.47 µM and 1.06 µM	4.54 µM and > 7.95 µM	1.74 µM and 2.32 µM	4.71 µM and 9.93 µM	2.08 µM and > 6.11 µM	5.59 µM and > 10 µM	1.71 µM and 2.36 µM	8.79 µM and > 10 µM	2.61 µM and 2.71 µM	9.73 µM and > 10 µM	3.18 µM and 5.3 µM	11.9 µM and > 10 µM	1.94 µM and 2.75 µM	5.17 µM and > 10 µM	4.12 µM	17.4 µM and > 10 µM	1.58 µM and 3.89 µM	3.5 µM and > 10 µM	1.58 µM and 2.35 µM	3 µM and > 5.9 µM
CCOc1cc(/C=N\Nc2nnc(C)n2N)c(C)cc1N(CCCl)CCCl	0.692 µM	6.5 µM	1.39 µM	6.29 µM	1.54 µM	14.7 µM	1.37 µM	14.3 µM	0.338 µM	> 68.2 µM	0.897 µM	19.9 µM	0.0978 µM	3.01 µM	1.13 µM	6.23 µM	1.29 µM	17.4 µM	0.56 µM	13.2 µM
COc1ccc2[nH]c(O)c(C(=Nc3ccc(N(C)C(=O)CN4CCN(C)CC4)cc3)c3ccccc3)c2c1	1.07 µM	2.64 µM	1.88 µM	5.17 µM	2.27 µM	15.6 µM	11.1 µM	29.7 µM	2.13 µM	12.6 µM	0.0197 µM	10.5 µM	2.5 µM	7.53 µM	4.65 µM	15.8 µM	1.04 µM	2.27 µM	0.562 µM	8.37 µM
COc1ccc(N2C(=O)[C@H]3CC(C)c4c([nH]c5ccccc45)[C@H]3C2=O)cc1 (stereo not given in full)		12.5 µM		> 54.8 µM		38.3 µM		12.4 µM		30.6 µM		63.1 µM		39.3 µM		7.71 µM		10.5 µM		30.8 µM
CCn1c2ccc(O)cc2c2c(C)c3c[n+](C)ccc3c(C)c21	1.18 µM	35.8 µM	9.58 µM	> 100 µM	0.896 µM	27.6 µM	31.1 µM	> 100 µM	5.83 µM	47.1 µM	2 µM	23.7 µM	7.43 µM	68 µM	0.748 µM	31.4 µM	0.873 µM	14.8 µM	4.55 µM	> 100 µM
COc1cc2ncnc(Nc3ccc(F)c(Cl)c3)c2cc1NC(=O)/C=C/CN1CCCCC1	1.03 µM and 1.25 µM	6 µM and 6.47 µM	1.3 µM and 1.53 µM	3.2 µM and 4 µM	2.91 µM and 4.52 µM	19.3 µM and > 10 µM	1.48 µM and 1.12 µM	7.15 µM and 6.37 µM	1.16 µM and 1.79 µM	4.86 µM and 7.17 µM	2.17 µM and 2.78 µM	4.88 µM and > 9.06 µM	1.95 µM and 1.93 µM	5.11 µM and 4.99 µM	1.78 µM and 2.44 µM	4.03 µM and > 7.08 µM	1.63 µM and 1.56 µM	3.08 µM and 3.03 µM	1.45 µM and 1.54 µM	3.1 µM and 3.54 µM
Cc1sc2nc3c4ccccc4c(NCCCN(C)C)nn3c(=O)c2c1C	3.46 µM	16.4 µM	2.15 µM	7.53 µM	5.26 µM	23.1 µM	10.7 µM	24.8 µM	12.1 µM	24.9 µM	4.84 µM	17.7 µM	4.8 µM	11.7 µM	8.25 µM	26.5 µM	1.65 µM	3.04 µM	4.03 µM	12.7 µM
COc1ccccc1/C=C/C(=O)c1ccccc1	13.1 µM	27.1 µM	14.4 µM	35.2 µM	13.3 µM	33.1 µM	5.75 µM	> 38.2 µM	9.33 µM	25.9 µM	4.04 µM	14.3 µM	0.56 µM	3.16 µM	14.8 µM	30.9 µM	16.4 µM	30.8 µM	3.5 µM	12.8 µM
Cc1cc2c(cc1Cl)SC1=NN(C)C(N(C)C)N1S2(=O)=O (stereo not given)	86.4 µM	> 100 µM	> 100 µM	> 100 µM	> 100 µM	> 100 µM	> 100 µM	> 100 µM	> 100 µM	> 100 µM	> 100 µM	> 100 µM	> 100 µM	> 100 µM	> 100 µM	> 100 µM	> 100 µM	> 100 µM	> 100 µM	> 100 µM
COc1cc(/C=C2\C(=O)Nc3ccc(N(C)C)cc32)cc(OC)c1OC	1.74 µM	6.33 µM	4.26 µM	> 63.8 µM	14.2 µM	> 100 µM	1.93 µM	6.27 µM	3.7 µM	> 100 µM	1.69 µM	13.2 µM	1.11 µM	4.14 µM	3.16 µM	> 100 µM	2.44 µM	7.88 µM	2.94 µM	> 43.9 µM
COc1cc(-c2cn(-c3ccc(Cl)c(Cl)c3)c(=O)n2C(C)=O)cc(OC)c1OC	9.64 µM	33.8 µM	10.4 µM	26.2 µM	7.96 µM	25.9 µM	13.5 µM	31.7 µM	5.21 µM	> 100 µM	12.3 µM	28.6 µM	10.5 µM	32.3 µM	1.53 µM	5.79 µM	2.07 µM	4.29 µM	13.7 µM	27.9 µM
